Among the data in ChEMBL document CHEMBL1156401, “A neutrophil multitarget functional bioassay to detect anti-inflammatory natural products” (J Nat Prod, 2002) are Activity and IC50 values, retold here.

The species entered for one assay is Homo sapiens. Briefly: Induction of elastase release in human PMNC assessed as increase in p-nitroanilide formation. Format: functional.
Assay [1] can be described thus: Antiinflammatory activity against cytochalasin-activated human PMNC assessed as inhibition of platelet activating factor-induced elastase release by p-nitroanilide formation assay. Type of assay: functional.

Values after ≈ are worked out from the molar mass of the structure shown.

In the case of `C[C@H]1O[C@@H](O[C@H]2[C@@H](O)C[C@H](O[C@H]3[C@@H](O)C[C@H](O[C@H]4CC[C@@]5(C)[C@H](CC[C@@H]6[C@@H]5CC[C@]5(C)[C@@H](C7=CC(=O)OC7)CC[C@]65O)C4)O[C@@H]3C)O[C@@H]2C)C[C@H](O)[C@@H]1O`, the Activity entry in the assay listed under Homo sapiens was “Dose-dependent effect”.
In general, IC50 refers to the point on the concentration scale where inhibition reaches its midpoint. With `C[C@@H]1C(=O)O[C@H]2[C@H](O)[C@@]34[C@H]5C[C@@H](C(C)(C)C)[C@]36[C@@H](OC(=O)[C@@H]6O)O[C@@]4(C(=O)O5)[C@@]12O` [GINKOLIDE B], the IC50 in assay [1] was determined as 72 µg/mL (≈ 170 µM).
